Source: patent publication US20030199698A1, “Carbamic acid esters as inhibitors of factor xa” (priority 2000, published 2003)

How the values were obtained:
factor Xa, human = factor Xa, human (Homo sapiens, UniProt P00742); assay: Inhibition of factor Xa; assay type: biochemical
Excerpt: The inhibition of factor Xa by the compounds according to the invention and the measurement of the anticoagulant and antithrombotic activity can be determined by conventional in-vitro or in-vivo methods. A suitable method is described, for example, by J. Hauptmann et al. in Thrombosis and Haemostasis 1990, 63, 220-223.
The inhibition of factor Xa can be measured, for example, by the method of T. Hara et al. in Thromb. Haemostas. 1994, 71, 314-319.

TF/VIIa = TF/VIIa (Homo sapiens, UniProt P08709); assay: Inhibition of TF/VIIa; assay type: biochemical
Excerpt: The inhibition of factor VIIa by the compounds according to the invention and the measurement of the anticoagulant and antithrombotic activity can be determined by conventional in-vitro or in-vivo methods. A conventional method for the measurement of the inhibition of factor VIIa is described, for example, by H. F. Ronning et al. in Thrombosis Research 1996, 84, 73-81.

Sequence of factor Xa, human (P00742 235-488 limits assumed): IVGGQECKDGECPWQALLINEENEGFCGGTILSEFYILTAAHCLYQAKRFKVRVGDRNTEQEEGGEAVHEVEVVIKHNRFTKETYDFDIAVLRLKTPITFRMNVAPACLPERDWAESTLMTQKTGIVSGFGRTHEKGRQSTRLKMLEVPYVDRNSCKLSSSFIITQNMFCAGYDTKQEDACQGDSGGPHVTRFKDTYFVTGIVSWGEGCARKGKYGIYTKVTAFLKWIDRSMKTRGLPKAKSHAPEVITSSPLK
Sequence of factor Xa, human (P00742 41-179 limits assumed): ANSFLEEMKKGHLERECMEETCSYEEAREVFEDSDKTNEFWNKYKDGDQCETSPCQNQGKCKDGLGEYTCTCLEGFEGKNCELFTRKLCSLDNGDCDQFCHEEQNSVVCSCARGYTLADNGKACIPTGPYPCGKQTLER
Sequence of TF/VIIa (P08709 213-466 limits assumed): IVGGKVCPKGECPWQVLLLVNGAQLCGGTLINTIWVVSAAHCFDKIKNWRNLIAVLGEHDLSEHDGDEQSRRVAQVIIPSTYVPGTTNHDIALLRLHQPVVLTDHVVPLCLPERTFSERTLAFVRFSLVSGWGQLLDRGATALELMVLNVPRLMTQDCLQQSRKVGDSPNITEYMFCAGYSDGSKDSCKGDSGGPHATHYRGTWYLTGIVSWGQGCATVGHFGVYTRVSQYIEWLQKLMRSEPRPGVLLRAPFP
Sequence of TF/VIIa (P08709 61-212 limits assumed): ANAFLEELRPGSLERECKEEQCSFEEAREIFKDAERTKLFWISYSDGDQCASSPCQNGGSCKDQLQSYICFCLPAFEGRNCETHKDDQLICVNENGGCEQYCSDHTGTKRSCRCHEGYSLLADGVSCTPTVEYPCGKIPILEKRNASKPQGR
Sequence of TF/VIIa (P13726 33-295 partner): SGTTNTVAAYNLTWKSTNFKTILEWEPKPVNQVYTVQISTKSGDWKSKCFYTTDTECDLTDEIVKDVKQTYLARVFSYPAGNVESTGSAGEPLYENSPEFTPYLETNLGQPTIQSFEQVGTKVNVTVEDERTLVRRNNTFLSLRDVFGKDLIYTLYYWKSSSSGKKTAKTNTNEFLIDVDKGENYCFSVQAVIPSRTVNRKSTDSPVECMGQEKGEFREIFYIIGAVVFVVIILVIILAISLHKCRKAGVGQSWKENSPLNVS

Row | Structure (SMILES) | IC50 (factor Xa, human) | IC50 (TF/VIIa) | melting point
1 | CCCN(Cc1cccc(C(=N)N)c1)C(=O)Oc1ccc(-c2ccccc2S(N)(=O)=O)cc1 [Example 2.3, 2′-aminosulfonylbiphenyl-4-yl (3-amidinobenzyl)propylcarbamate] | 450 nM | 350 nM | 119 to 120 °C
2 | CCCN(Cc1cccc(C(=N)N)c1)C(=O)Oc1ccc(-c2ccccc2S(C)(=O)=O)cc1 [Example 3.3, 2′-methylsulfonylbiphenyl-4-yl (3-amidinobenzyl)propylcarbamate] | 340 nM | 130 nM | –
